Reference: patent US11786530B2, “Method against severe acute respiratory syndrome coronavirus 2 infection” (National Yang Ming Chiao Tung University, priority 2021, dated 2023)

Assays:
[1] = system: SARS-CoV-2 WA strain; assay: Inhibition of SARS-CoV-2 in infected Vero E6 cells (MTT, OD590) with ZIP delta synergy score; type: cell-based; conditions: Severe acute respiratory syndrome coronavirus 2, Vero C1008, 72 h, read-out: Inhibition rate
[2] = system: SARS-CoV-2; conditions: model cell lines; cited from earlier work

Row | Compound | inhibition at 0.2 µM ([1]; Comparative group 2: MTX 0.2 μM, remdesivir 0 μM, Vero E6 cells, 3 days) [%] | inhibition of SARS-CoV-2 replication [2] | inhibition at 3 µM [1] [%]
1 | CN(Cc1cnc2nc(N)nc(N)c2n1)c1ccc(C(=O)N[C@@H](CCC(=O)O)C(=O)O)cc1 [MTX, methotrexate] | 11.7 | dose-dependent, potent inhibition | –
2 | CCC(CC)COC(=O)[C@H](C)N[P@](=O)(OC[C@H]1O[C@@](C#N)(c2ccc3c(N)ncnn23)[C@H](O)[C@@H]1O)Oc1ccccc1 [remdesivir] | – | – | 4.57
